Assay [1] deals with T1, SNF-related serine/threonine-protein kinase (Homo sapiens) (UniProt Q9NRH2).
T1 sequence (whole entry): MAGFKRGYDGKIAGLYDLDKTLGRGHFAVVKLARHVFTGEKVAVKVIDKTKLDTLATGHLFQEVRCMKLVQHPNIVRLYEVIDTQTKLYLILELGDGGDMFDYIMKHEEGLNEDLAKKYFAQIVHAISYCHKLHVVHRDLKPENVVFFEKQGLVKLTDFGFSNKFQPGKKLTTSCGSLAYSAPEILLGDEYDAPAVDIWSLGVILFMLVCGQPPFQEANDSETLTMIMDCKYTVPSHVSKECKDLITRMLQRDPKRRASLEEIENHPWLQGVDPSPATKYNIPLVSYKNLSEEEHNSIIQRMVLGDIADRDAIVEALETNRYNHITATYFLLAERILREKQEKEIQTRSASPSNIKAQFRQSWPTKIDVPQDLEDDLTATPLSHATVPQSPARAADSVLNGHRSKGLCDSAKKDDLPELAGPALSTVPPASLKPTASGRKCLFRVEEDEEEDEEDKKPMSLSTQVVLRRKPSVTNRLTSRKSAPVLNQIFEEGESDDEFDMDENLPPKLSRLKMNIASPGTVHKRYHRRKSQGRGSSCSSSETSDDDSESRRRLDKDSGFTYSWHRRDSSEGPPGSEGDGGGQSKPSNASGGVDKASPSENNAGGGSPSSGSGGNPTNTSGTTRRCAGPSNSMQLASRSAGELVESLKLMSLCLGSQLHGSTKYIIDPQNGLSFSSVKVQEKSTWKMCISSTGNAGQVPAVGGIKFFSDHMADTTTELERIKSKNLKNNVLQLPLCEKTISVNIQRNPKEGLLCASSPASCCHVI
As to the kind of experiment: Selectivity interaction (ActivX KiNativ screen (kinase selectivity in THP-1 cell lysates)) EUB0000639a SNRK. The settings on record: lysate, at 0.04 µM. In kind it is subcellular.

Assay [2] concerns the target Tyrosine-protein kinase JAK1 (Homo sapiens, UniProt P23458). As to the kind of experiment: Selectivity interaction (Antiproliferative activity against Tel-kinase transformed Ba/F3 cell line) EUB0000045b JAK1. In kind it is cell-based. The settings on record: BaF3.
Assay [3] concerns the target T2, Aurora kinase C (Homo sapiens) (UniProt Q9UQB9).
T2 sequence (whole entry): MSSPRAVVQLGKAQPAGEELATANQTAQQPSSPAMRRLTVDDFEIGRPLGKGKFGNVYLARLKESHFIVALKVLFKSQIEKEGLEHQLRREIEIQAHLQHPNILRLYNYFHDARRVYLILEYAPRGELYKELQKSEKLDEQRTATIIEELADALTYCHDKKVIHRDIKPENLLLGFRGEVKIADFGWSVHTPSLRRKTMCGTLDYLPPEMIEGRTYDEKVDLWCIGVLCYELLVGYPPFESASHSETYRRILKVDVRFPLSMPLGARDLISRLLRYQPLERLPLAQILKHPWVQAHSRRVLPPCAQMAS
Nature of the assay: Selectivity interaction (Ambit KINOMEscan and KiNATiv profiling in Jurkat cells) EUB0000090b AURKC. Format: cell-based. The settings on record: at 1 µM.

In assay [4] the target is T3, Serine/threonine-protein kinase NLK (Homo sapiens) (UniProt Q9UBE8).
T3 sequence (whole entry): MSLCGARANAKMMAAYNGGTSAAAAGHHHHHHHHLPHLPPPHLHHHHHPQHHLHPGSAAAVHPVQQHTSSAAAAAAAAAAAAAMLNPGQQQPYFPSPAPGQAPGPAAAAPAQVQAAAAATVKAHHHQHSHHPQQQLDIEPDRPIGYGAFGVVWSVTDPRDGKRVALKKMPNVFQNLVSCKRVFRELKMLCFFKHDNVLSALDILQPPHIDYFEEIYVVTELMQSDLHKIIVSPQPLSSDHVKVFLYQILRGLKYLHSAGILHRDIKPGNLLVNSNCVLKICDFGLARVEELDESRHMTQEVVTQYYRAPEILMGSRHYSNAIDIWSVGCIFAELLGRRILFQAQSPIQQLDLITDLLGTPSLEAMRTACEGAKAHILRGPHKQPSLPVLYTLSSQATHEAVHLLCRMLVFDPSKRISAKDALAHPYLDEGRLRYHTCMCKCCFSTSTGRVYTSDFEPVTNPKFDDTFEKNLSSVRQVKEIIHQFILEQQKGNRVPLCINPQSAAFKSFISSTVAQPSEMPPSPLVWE
As to the kind of experiment: Selectivity interaction (KinomeScan (DiscoverX)) EUB0000092b NLK. The settings on record: at 10 µM.

Assay [5] addresses Protein kinase C delta type (Homo sapiens) (UniProt Q05655). As to the kind of experiment: Selectivity interaction (Millipore kinase profiler) EUB0000124b PRKCD. The settings on record: at 10 µM.

Chain of Protein kinase C delta type (Homo sapiens) (Q05655 whole entry, looked up): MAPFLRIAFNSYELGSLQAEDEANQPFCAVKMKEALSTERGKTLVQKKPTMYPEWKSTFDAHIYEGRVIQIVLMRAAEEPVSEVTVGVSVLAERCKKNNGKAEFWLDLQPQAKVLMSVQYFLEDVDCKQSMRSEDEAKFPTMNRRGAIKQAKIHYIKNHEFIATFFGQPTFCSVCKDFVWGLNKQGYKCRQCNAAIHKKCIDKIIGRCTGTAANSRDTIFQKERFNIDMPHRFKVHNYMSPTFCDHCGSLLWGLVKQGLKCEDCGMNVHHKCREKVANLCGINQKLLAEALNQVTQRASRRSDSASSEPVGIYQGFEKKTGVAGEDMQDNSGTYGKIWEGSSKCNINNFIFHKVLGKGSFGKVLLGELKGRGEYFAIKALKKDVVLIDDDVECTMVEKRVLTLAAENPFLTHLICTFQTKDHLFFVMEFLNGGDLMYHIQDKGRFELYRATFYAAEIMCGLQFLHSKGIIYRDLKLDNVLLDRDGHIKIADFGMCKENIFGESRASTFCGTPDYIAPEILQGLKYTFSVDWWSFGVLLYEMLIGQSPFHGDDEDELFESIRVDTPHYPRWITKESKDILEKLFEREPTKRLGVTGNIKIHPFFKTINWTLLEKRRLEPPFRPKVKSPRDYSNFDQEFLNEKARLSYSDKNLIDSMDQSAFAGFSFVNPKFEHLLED
Chain of Tyrosine-protein kinase JAK1 (P23458 whole entry): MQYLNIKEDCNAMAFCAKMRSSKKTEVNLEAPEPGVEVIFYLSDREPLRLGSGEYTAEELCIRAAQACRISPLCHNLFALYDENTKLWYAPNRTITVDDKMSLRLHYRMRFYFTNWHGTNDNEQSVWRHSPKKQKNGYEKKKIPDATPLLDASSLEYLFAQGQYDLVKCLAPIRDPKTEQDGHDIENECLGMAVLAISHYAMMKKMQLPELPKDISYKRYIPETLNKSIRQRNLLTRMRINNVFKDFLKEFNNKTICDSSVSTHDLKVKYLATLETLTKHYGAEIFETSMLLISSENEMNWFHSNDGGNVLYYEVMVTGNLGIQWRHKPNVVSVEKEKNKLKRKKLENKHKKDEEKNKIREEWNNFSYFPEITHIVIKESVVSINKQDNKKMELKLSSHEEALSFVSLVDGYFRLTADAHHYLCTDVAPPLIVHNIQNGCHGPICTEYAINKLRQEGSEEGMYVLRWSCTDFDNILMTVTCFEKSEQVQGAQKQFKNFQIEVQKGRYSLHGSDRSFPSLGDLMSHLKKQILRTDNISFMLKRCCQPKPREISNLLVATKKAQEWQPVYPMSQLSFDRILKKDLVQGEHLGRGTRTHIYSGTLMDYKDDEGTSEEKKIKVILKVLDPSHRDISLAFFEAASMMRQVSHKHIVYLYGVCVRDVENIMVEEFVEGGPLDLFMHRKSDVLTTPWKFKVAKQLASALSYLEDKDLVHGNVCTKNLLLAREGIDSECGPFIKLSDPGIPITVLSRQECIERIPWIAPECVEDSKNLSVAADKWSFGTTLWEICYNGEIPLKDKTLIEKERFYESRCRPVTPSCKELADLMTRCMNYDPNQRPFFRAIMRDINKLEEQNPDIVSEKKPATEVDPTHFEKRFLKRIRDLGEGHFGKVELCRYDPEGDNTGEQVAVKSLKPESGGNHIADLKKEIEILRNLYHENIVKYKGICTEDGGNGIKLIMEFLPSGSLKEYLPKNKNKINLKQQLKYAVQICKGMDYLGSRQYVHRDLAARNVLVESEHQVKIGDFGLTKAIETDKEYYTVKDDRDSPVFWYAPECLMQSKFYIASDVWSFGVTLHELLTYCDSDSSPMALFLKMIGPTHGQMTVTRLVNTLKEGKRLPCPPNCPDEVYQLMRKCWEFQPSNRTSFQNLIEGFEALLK

In assay [1], `CC[C@@H]1[C@H](F)C(=O)N[C@@H]1COc1nccc2cc(C(N)=O)c(OC)cc12` [ZIMLOVISERTIB] registered a % of inhibition of 9.5%.
With `C=CC(=O)Nc1cc(-n2c(=O)ccc3cnc4ccc(-c5ccc(NS(C)(=O)=O)cc5)cc4c32)ccc1C`, the GIC50 in assay [2] was found to be 4.92 µM.
`CN(C)C/C=C/C(=O)Nc1ccc(C(=O)N2CCCC(Nc3ncc(Cl)c(-c4c[nH]c5ccccc45)n3)C2)cc1` (stereo not given) displayed a % of control in assay [3] of 100%.
In the case of `CCC(=O)N1CCN(c2ccc(-n3c(=O)ccc4cnc5ccc(-c6cnc7ccccc7c6)cc5c43)cc2C(F)(F)F)CC1`, the % of control in assay [4] stood at 25%.
Compound `CC(=O)Nc1cccc(-n2c(=O)n(C3CC3)c(=O)c3c(Nc4ccc(I)cc4F)n(C)c(=O)c(C)c32)c1` returned a % of control in assay [5] of 97%.

For the origin of these results see ChEMBL document CHEMBL5465560, “Selectivity Literature for EUbOPEN Chemogenomic Library” (2024).
